{"source": "ChEMBL document CHEMBL3808377", "about": "“Core Replacements in a Potent Series of VEGFR-2 Inhibitors and Their Impact on Potency, Solubility, and hERG” (ACS Med Chem Lett, 2016)", "key": {"[1]": {"molecular_target": "Voltage-gated inwardly rectifying potassium channel KCNH2 (Homo sapiens, UniProt Q12809)", "sequence (Q12809 whole entry)": "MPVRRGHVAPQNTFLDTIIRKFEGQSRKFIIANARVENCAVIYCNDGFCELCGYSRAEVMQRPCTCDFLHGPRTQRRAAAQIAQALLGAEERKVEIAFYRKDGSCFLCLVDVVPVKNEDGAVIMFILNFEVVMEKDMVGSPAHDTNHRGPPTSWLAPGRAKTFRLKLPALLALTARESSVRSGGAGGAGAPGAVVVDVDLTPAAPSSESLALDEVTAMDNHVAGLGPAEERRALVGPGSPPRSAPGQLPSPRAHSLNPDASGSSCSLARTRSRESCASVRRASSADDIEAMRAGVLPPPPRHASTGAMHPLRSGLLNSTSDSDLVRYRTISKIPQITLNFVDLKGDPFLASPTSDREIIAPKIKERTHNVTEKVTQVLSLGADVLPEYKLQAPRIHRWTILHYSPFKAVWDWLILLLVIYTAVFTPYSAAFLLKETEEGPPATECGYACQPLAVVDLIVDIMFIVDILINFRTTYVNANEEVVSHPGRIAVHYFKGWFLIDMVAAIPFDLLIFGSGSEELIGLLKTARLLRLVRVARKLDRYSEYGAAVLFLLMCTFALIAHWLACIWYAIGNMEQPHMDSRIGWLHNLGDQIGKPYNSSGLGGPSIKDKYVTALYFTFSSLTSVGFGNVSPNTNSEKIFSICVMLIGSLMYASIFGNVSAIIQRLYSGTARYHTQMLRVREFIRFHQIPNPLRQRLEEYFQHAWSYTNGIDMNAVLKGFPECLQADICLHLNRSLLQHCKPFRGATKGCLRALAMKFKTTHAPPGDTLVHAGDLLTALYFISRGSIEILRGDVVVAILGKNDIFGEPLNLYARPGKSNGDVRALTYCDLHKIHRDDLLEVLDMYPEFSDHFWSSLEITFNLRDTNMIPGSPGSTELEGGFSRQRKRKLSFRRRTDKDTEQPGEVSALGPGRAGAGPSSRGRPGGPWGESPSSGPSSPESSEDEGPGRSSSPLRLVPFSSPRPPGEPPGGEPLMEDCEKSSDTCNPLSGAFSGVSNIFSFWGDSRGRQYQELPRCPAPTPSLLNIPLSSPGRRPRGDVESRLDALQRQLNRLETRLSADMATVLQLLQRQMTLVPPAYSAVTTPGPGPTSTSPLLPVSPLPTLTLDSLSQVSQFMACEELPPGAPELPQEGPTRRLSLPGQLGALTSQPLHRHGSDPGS", "assay": "Binding affinity to human ERG by radioligand binding assay"}, "[2]": {"assay": "Aqueous solubility of the compound at pH 6.8", "assay_type": "physicochemical"}}}
{"smiles": "C[C@H]1Cc2c(ncnc2Oc2ccc3c(ccn3C(=O)Nc3cc(C4(C(F)(F)F)CC4)on3)c2)CN1", "values": [{"measurement": "IC50", "setting": "[1]", "result": 7.4, "unit": "µM"}, {"measurement": "solubility", "setting": "[2]", "result": 34, "unit": "µM"}]}
{"smiles": "C[C@H]1Cc2c(ncnc2Oc2ccc3ccn(C(=O)Nc4cc(C5(C(F)(F)F)CC5)on4)c3c2)CN1", "values": [{"measurement": "IC50", "setting": "[1]", "result": 8.6, "unit": "µM"}, {"measurement": "solubility", "setting": "[2]", "result": 3, "unit": "µM"}]}
{"smiles": "CC(C)(C)c1cc(NC(=O)n2ccc3ncc(Oc4ncnc5c4CNC5)cc32)no1", "values": [{"measurement": "IC50", "setting": "[1]", "result": "> 30", "unit": "µM"}, {"measurement": "solubility", "setting": "[2]", "result": 240, "unit": "µM"}]}
{"smiles": "CC(C)(C)c1cc(NC(=O)n2ccc3nc(Oc4ncnc5c4CNC5)ccc32)no1", "values": [{"measurement": "IC50", "setting": "[1]", "result": 26, "unit": "µM"}, {"measurement": "solubility", "setting": "[2]", "result": 260, "unit": "µM"}]}
{"smiles": "CC(C)(C)c1cc(NC(=O)n2ncc3cc(Oc4ncnc5c4CNC5)ccc32)no1", "values": [{"measurement": "IC50", "setting": "[1]", "result": 7.7, "unit": "µM"}, {"measurement": "solubility", "setting": "[2]", "result": 9, "unit": "µM"}]}
{"smiles": "CC1(c2cc(NC(=O)c3ccn4cc(Oc5ncnc6c5CNC6)ccc34)n[nH]2)CC1", "values": [{"measurement": "solubility", "setting": "[2]", "result": 280, "unit": "µM"}]}
{"smiles": "CC(C)(C)c1cc(NC(=O)c2cnc3cc(Oc4ncnc5c4CNC5)ccn23)no1", "values": [{"measurement": "IC50", "setting": "[1]", "result": 9.2, "unit": "µM"}, {"measurement": "solubility", "setting": "[2]", "result": 456, "unit": "µM"}]}
{"smiles": "CC(C)(C)c1cc(NC(=O)n2ccc3ccc(Oc4ncnc5c4CNC5)cc32)no1", "values": [{"measurement": "IC50", "setting": "[1]", "result": 21, "unit": "µM"}, {"measurement": "solubility", "setting": "[2]", "result": 81, "unit": "µM"}]}
{"smiles": "CC(C)(C)c1cc(NC(=O)n2ccc3cc(Oc4ncnc5c4CNC5)cnc32)no1", "values": [{"measurement": "IC50", "setting": "[1]", "result": 5.7, "unit": "µM"}, {"measurement": "solubility", "setting": "[2]", "result": 25, "unit": "µM"}]}
